Test systems include COLO 205 colon; M14 melanoma; RXF 393 renal; NCI-H23 lung; HOP-62 NSCLC; IGROV1 ovarian; SR leukemia; UACC-62 melanoma; MDA-MB-435; HOP-92 NSCLC.
Assay in all cases: NCI-60 cell line screen, 48 h

This note sets out measurements from PubChem BioAssay (NCI).

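Where inhibition never reached the appropriate level, the endpoint shown equals the highest concentration tested. Otherwise, values were interpolated linearly from a five-concentration, 48-hour dose response in 96-well plates. Here, GI50 denotes the concentration required for 50% inhibition of growth. TGI: total growth inhibition.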

Consider `CCOC(=O)c1c(NS(=O)(=O)c2ccccc2)sc2c1CCCC2`, for which the TGI in the experiment with COLO 205 colon, with M14 melanoma, with RXF 393 renal, in the experiment with NCI-H23 lung, in the experiment on HOP-62 NSCLC and with IGROV1 ovarian was greater than 100 µM throughout. Besides, the TGI with SR leukemia and with UACC-62 melanoma was greater than 100 µM each time.

Consider `CNC(=O)OC1/C(C)=C\C(C)C(O)C(OC)CC(C)CC2=C(OC)C(=O)C=C(C2=O)N(C)C(=O)/C(C)=C/C=C\C1OC` (stereo not drawn), for which, in the experiment with MDA-MB-435, the GI50 is greater than 100 µM. In addition, the TGI with MDA-MB-435 was greater than 100 µM; in the experiment with COLO 205 colon, 7.9 µM; with M14 melanoma, 18.4 µM; in the experiment on RXF 393 renal it was 17.9 µM; with NCI-H23 lung, 15 µM; with HOP-62 NSCLC it was 24 µM. Also, the figures for the TGI with IGROV1 ovarian, with HOP-92 NSCLC and with UACC-62 melanoma were 24.6 µM, 16 µM and 17.6 µM, respectively.

Turning to `CN1C/C(=C\c2ccccc2)C2=NN(C(N)=S)[C@H](c3ccccc3)[C@@H]2C1`, the TGI with COLO 205 colon, with M14 melanoma, in the experiment on RXF 393 renal, in the experiment on NCI-H23 lung, with HOP-62 NSCLC and in the experiment with IGROV1 ovarian was greater than 100 µM each time. The TGI in the experiment with SR leukemia, in the experiment with HOP-92 NSCLC and with UACC-62 melanoma was greater than 100 µM throughout.

For `CCN(CC)C(=O)Cc1[nH][nH]c(=O)c1C(=O)N(CC)CC`, the TGI with COLO 205 colon, in the experiment on M14 melanoma, with RXF 393 renal, with NCI-H23 lung, in the experiment with HOP-62 NSCLC and with IGROV1 ovarian was greater than 100 µM each time. Moreover, the TGI in the experiment on SR leukemia, with HOP-92 NSCLC and in the experiment on UACC-62 melanoma was greater than 100 µM in each case.

For `Cc1ccc(-c2ccc3c(c2)Sc2ccccc2O3)n1C`, the TGI is 2.12 µM with COLO 205 colon; greater than 65.4 µM with M14 melanoma; 11.4 µM in the experiment on RXF 393 renal; greater than 100 µM in the experiment with NCI-H23 lung; greater than 100 µM with HOP-62 NSCLC; 1.2 µM in the experiment on IGROV1 ovarian. Also, the TGI in the experiment on SR leukemia and in the experiment with HOP-92 NSCLC was greater than 100 µM each time.

Turning to `CCOC(=O)CN(CC)C(=O)NC12CC3CC(CC(C3)C1)C2`, the TGI in the experiment with COLO 205 colon was 270 µM; in the experiment with RXF 393 renal, 509 µM; with NCI-H23 lung, 560 µM; with HOP-62 NSCLC it was 602 µM; with IGROV1 ovarian, greater than 750 µM; with HOP-92 NSCLC it was 176 µM. Moreover, in the experiment with UACC-62 melanoma, the TGI worked out at 312 µM.

As to `CC(C)C(Sc1nc(N)nc2nc[nH]c12)C(=O)O` (stereo not drawn), the TGI in the experiment on MDA-MB-435, with COLO 205 colon, in the experiment on M14 melanoma, in the experiment with RXF 393 renal, with NCI-H23 lung and with HOP-62 NSCLC was greater than 100 µM throughout. Further, the TGI in the experiment on IGROV1 ovarian, in the experiment on SR leukemia and in the experiment with UACC-62 melanoma was greater than 100 µM each time.

Regarding `CC(NC(CC12CC3CC(CC(C3)C1)C2)C(N)=O)c1ccccc1` (stereo not drawn), the TGI was 41.1 µM in the experiment on MDA-MB-435; 28.7 µM with COLO 205 colon; 45.7 µM in the experiment on M14 melanoma; greater than 100 µM with HOP-62 NSCLC; greater than 100 µM in the experiment on IGROV1 ovarian; 41.3 µM in the experiment on SR leukemia. In the experiment on UACC-62 melanoma, this compound came in with a TGI greater than 100 µM.

With `CCCC(O)c1ccc2[nH]c3c(C)cc([N+](=O)[O-])c(C)c3c2c1` (stereo not drawn), the TGI in the experiment on COLO 205 colon, with M14 melanoma, in the experiment with NCI-H23 lung, in the experiment with HOP-62 NSCLC and in the experiment on SR leukemia was greater than 100 µM each time.

For the compound `CCCNC(=O)c1cc(OC)c(OC)cc1NC(=O)C12CC3CC(CC(C3)C1)C2`, the TGI in the experiment on MDA-MB-435 worked out at 32.8 µM; in the experiment with COLO 205 colon, 56.6 µM; in the experiment on M14 melanoma it was 28.5 µM; with RXF 393 renal, 19.3 µM; in the experiment on NCI-H23 lung it was 31.6 µM; in the experiment with HOP-62 NSCLC it was 34.7 µM. Further, the results for the TGI in the experiment on IGROV1 ovarian and with HOP-92 NSCLC were 53.3 µM and 34.6 µM, respectively.

As to `COC(OC)c1cccc2c1C(=O)CCC1(CC2)OCCCCO1`, the TGI in the experiment with COLO 205 colon, in the experiment on M14 melanoma, in the experiment on RXF 393 renal, with NCI-H23 lung, in the experiment with HOP-62 NSCLC and with IGROV1 ovarian was greater than 100 µM throughout. Moreover, the TGI in the experiment with UACC-62 melanoma was greater than 100 µM.

In the case of `O=C(O)c1ccccc1Sc1ccc(C=C2NC(=S)N(c3ccccc3)C2=O)s1`, the TGI in the experiment with MDA-MB-435, with COLO 205 colon, with RXF 393 renal, with NCI-H23 lung, with HOP-62 NSCLC and in the experiment on IGROV1 ovarian was greater than 100 µM throughout. Besides, the TGI in the experiment with SR leukemia and in the experiment with UACC-62 melanoma was greater than 100 µM in each case.

On to `CSC(SC)=C(C#N)C(=O)Nc1ccc(Cl)cc1`, for which the TGI was greater than 100 µM with MDA-MB-435; 35.9 µM in the experiment on COLO 205 colon; greater than 100 µM in the experiment with M14 melanoma; 54.9 µM in the experiment with RXF 393 renal; greater than 100 µM in the experiment with NCI-H23 lung; greater than 100 µM with SR leukemia. Also, the TGI in the experiment on UACC-62 melanoma is greater than 100 µM.

In the case of `C=CCCCCCCCCCOC1C=CC(O)C(CO)O1` (stereo not drawn), the TGI with MDA-MB-435 is greater than 100 µM; in the experiment on COLO 205 colon, greater than 100 µM; in the experiment with M14 melanoma, 36 µM; in the experiment with RXF 393 renal, greater than 100 µM; in the experiment on NCI-H23 lung, 97.5 µM; with HOP-62 NSCLC it was greater than 100 µM. For the same compound, the TGI is 59.1 µM in the experiment on IGROV1 ovarian, greater than 100 µM in the experiment with HOP-92 NSCLC and 97.4 µM with UACC-62 melanoma.

As for `COc1ccc(N2C(=O)[C@@H]3[C@@H]4CC(C)CC[C@@H]4c4c([nH]c5ccccc45)[C@@H]3C2=O)cc1` (stereo partly drawn), the TGI in the experiment with COLO 205 colon is greater than 55.1 µM; in the experiment with M14 melanoma, greater than 74.9 µM; with NCI-H23 lung it was greater than 47.5 µM; with HOP-62 NSCLC, 32.8 µM; in the experiment on IGROV1 ovarian, 49.7 µM; with SR leukemia, greater than 25.9 µM. Besides, the TGI in the experiment on HOP-92 NSCLC came out at 23 µM; with UACC-62 melanoma, 40.8 µM.

Take `COc1ccc(/C=C(\C#N)c2ccccn2)cc1OC`: the TGI in the experiment with COLO 205 colon, in the experiment with M14 melanoma, in the experiment on RXF 393 renal, in the experiment on NCI-H23 lung, in the experiment on HOP-62 NSCLC and in the experiment with IGROV1 ovarian was greater than 100 µM in each case. The TGI with SR leukemia is greater than 100 µM; in the experiment on HOP-92 NSCLC it was 48.7 µM; in the experiment on UACC-62 melanoma, greater than 100 µM.
